Assay results from patent US20120157448A1, “COMPOUNDS FOR TREATING NEURODEGENERATIVE DISEASES” (priority 2010, published 2012).

Target: T1, BACE-1 (Homo sapiens, UniProt P56817)
T1 construct: endogenous in cells; host or cells: HEK-293 cells stably transfected with wild type APP695
Experiment: Cellular BACE-1 inhibition assay (in vitro cellular Amyloidβ 1-40 production, HTRF immunoassay)
Format: cell-based
Conditions: inhibition of Amyloidβ 1-40 production; HEK-293 cells stably transfected with wild type APP695; 48 hours incubation; average where tested more than once; read-out: IC50
Protocol: Materials and Methods: HEK-293 cells stably transfected with a DNA construct containing the coding sequence for the wild type APP695 sequence were grown in Dulbecco's Modified Eagle Medium (“DMEM”) supplemented with 10% fetal bovine serum, penicillin/streptomycin and 150 μg/mL G418. Cells were plated in 96-well plates at 35,000 cells/well and allowed to attach for 8-12 hours. Media was changed to DMEM supplemented with 10% fetal bovine serum, penicillin/streptomycin 15 minutes prior to compound addition. Diluted compounds were then added at a final concentration of 0.5% DMSO. After 48 hours, 4 μL of media from each well was added to a corresponding well of a 384 well plate (Perkin Elmer Cat#6008280) containing the HTRF reagents. HTRF reagents were obtained from the CisBio Amyloid β 1-40 peptide assay kit (Cat#62B40PEC) and were prepared as follows anti-peptide β (1-40)-Cryptate and anti-peptide […] were stored in 2 plate aliquots at −80° C. Diluent and Reconstitution buffer were stored at 4° C. Aliquots of the two antibodies were diluted 1:100 with Reconstitution buffer, and this mixture was diluted 1:2 with Diluent. 12 μL of the reagent mixture was added to the required wells of the 384 well assay plate. The assay plate was incubated at 4° C. for 17 hours and then analyzed for fluorescence at 665 and 620 nm. The following compounds were tested in the above assay. Some compounds were tested more than once, and the average is reported below.

T1 sequence (P56817 46-501): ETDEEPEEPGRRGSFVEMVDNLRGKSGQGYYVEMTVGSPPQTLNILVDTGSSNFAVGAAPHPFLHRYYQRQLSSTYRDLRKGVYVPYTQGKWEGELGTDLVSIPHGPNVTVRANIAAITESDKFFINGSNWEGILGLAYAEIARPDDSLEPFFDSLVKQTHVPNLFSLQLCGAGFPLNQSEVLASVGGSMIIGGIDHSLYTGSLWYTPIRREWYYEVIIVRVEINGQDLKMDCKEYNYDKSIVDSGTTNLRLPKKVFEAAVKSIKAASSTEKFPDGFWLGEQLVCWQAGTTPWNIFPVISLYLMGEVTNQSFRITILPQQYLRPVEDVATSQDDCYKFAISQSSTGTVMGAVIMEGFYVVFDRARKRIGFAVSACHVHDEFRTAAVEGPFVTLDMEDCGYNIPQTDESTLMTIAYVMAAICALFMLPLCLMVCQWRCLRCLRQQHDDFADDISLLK

Compound	IC50 [µM]
NC1=N[C@@]2(CO1)c1cc(-c3cncc(Cl)c3)ccc1OC1CC[C@H](OCC3CC3)C[C@@H]12 (relative stereo) [Example 28, (4R*,4a′S*,9a′R*)-7′-(5-chloropyridin-3-yl)-2′-(cyclopropylmethoxy)-1′,2′,3′,4′,4a′,9a′-hexahydro-5H-spiro[oxazole-4,9′-xanthen]-2-amine]	0.0078
NC1=NC2(CO1)c1cc(-c3cncc(Cl)c3)ccc1OC1CCC(F)CC12 (centres unmarked) [Example 27, 7′-(5-chloropyridin-3-yl)-2′-fluoro-1′,2′,3′,4′,4a′,9a′-hexahydro-5H-spiro[oxazole-4,9′-xanthen]-2-amine]	0.0642
NC1=NC2(CO1)c1cc(-c3cncc(Cl)c3)ccc1OC1CCCCC12 (racemic) [Example 9, 7′-(5-chloropyridin-3-yl)-1′,2′,3′,4′,4a′,9a′-hexahydro-5H-spiro[oxazole-4,9′-xanthen]-2-amine]	0.0434
NC1=NC2(CO1)c1cc(NC(=O)c3ccc(Br)cn3)ccc1OC1CCCCC12 (racemic) [Example 17, N-(2-amino-1′,2′,3′,4′,4a′,9a′-hexahydro-5H-spiro[oxazole-4,9′-xanthene]-7′-yl)-5-bromopicolinamide]	0.147
NC1=NC2(CO1)c1cc(-c3cncnc3)ccc1OC1CCCCC12 (single isomer, unassigned) [Example 12, 7′-(pyrimidin-5-yl)-1′,2′,3′,4′,4a′,9a′-hexahydro-5H-spiro[oxazole-4,9′-xanthen]-2-amine]	0.0607
COC1CCC2Oc3ccc(-c4cncc(Cl)c4)cc3C3(COC(N)=N3)C2C1 (centres unmarked) [Example 54, 7′-(5-chloropyridin-3-yl)-2′-methoxy-1′,2′,3′,4′,4a′,9a′-hexahydro-5H-spiro[oxazole-4,9′-xanthen]-2-amine]	0.0335
NC1=NC2(CO1)c1cc(-c3cccnc3F)ccc1OC1CCN(C(=O)OCc3ccccc3)C[C@@H]12 (mixture of isomers) [Example 5, rac-trans-(4a,10a)-benzyl 2′-amino-8-(2-fluoropyridin-3-yl)-1,4,4a,10a-tetrahydro-5′H-spiro[chromeno[3,2-c]pyridine-10,4′-oxazole]-2(3H)-carboxylate]	0.133
Cc1nc(C(=O)Nc2ccc3c(c2)C2(COC(N)=N2)[C@@H]2CCCCC2O3)co1 (single isomer, unassigned) [Example 15, N-(2-amino-1′,2′,3′,4′,4a′,9a′-hexahydro-5H-spiro[oxazole-4,9′-xanthene]-7′-yl)-2-methyloxazole-4-carboxamide]	0.0587
C[C@]12CCCO[C@@H]1[C@]1(COC(N)=N1)c1cc(-c3cncc(F)c3)ccc1O2 (relative stereo) [Example 88, (4R*,4a′S*,10a′R*)-8′-(5-fluoropyridin-3-yl)-4a′-methyl-3′,4′,4a′,10a′-tetrahydro-2′H,5H-spiro[oxazole-4,10′-pyrano[3,2-b]chromen]-2-amine]	0.154
CC(C)O[C@H]1CCC2Oc3ccc(-c4cccnc4F)cc3C3(COC(N)=N3)[C@H]2C1 (stereo partly drawn) [Example 155, (2′S,4a′S,9aR)-7′-(2-fluoropyridin-3-yl)-2′-isopropoxy-1′,2′,3′,4′,4a′,9a′-hexahydro-5H-spiro[oxazole-4,9′-xanthen]-2-amine]	0.0714
CCOCC1CCC2Oc3ccc(-c4cncc(Cl)c4)cc3C3(COC(N)=N3)[C@H]2O1 (stereo in doubt) [Example 98, (4a′S*,10a′R*)-8′45-chloropyridin-3-yl)-2′-(ethoxymethyl)-3′,4′,4a′,10a′-tetrahydro-2H,5H-spiro[oxazole-4,10′-pyrano[3,2-b]chromen]-2-amine]	0.421
NC1=NC2(CO1)c1cc(-c3cccnc3F)ccc1OC1CCC(O)C[C@@H]12 (stereo in doubt) [Example 31, (4a′S*,9a′R*)-2-amino-7′-(2-fluoropyridin-3-yl)-1′,2′,3′,4′,4a′,9a′-hexahydro-5H-spiro[oxazole-4,9′-xanthen]-2′-ol]	0.0473
N#Cc1cc(Cl)cc(-c2ccc3c(c2)[C@@]2(COC(N)=N2)[C@H]2C[C@@H](O)CC[C@@H]2O3)c1 [Example 140, 3-((2′S,4R,4a′S,9a′R)-2-amino-2′-hydroxy-1′,2′,3′,4′,4a′,9a′-hexahydro-5H-spiro[oxazole-4,9′-xanthen]-7′-yl)-5-chlorobenzonitrile]	0.0483
N#Cc1cc(Cl)cc(-c2ccc3c(c2)[C@@]2(COC(N)=N2)[C@H]2C[C@@H](OC4CCC4)CC[C@@H]2O3)c1 [Example 156, 3-((2′S,4R,4a′S,9a′R)-2-amino-2′-cyclobutoxy-1′,2′,3′,4′,4a′,9a′-hexahydro-5H-spiro[oxazole-4,9′-xanthen]-7′-yl)-5-chlorobenzonitrile]	0.0929
